Assay [1] in a line: HPDE-C7 pancreatic duct cell viability loss – fluorescence, HTS (AID 430). Type of assay: functional, cell-based. As to conditions: Homo sapiens.
A short description of assay [2]: viability loss of HPDE-C7K cells – cell-based, fluorescence, HTS, primary screen (AID 431). Format: functional. As to conditions: Homo sapiens.
The nature of assay [3]: growth inhibition of yeast DHODH-expressing 3D7 parasites – SYBR Green, dry powder samples, dose response (AID 1159570).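 Note: parasite growth measured after 72 hours of compound exposure.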 Type of assay: functional, cell-based.
Assay [4] in a line: growth inhibition of PfATP4-mutant resistant parasites – NITD609-resistant line, SYBR Green, dry powder, dose response (AID 1159571).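 Note: parasites synchronized at ring stage by sorbitol before testing.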 Type of assay: functional, cell-based.
Assay [5] in a line: toxicity to human HepG2 hepatoma cells – cell-based, plate reader, dry powder samples, cytotoxicity control, dose response (AID 1159569).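 Note: inhibitor potency with signal falling toward the positive control level.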 Format: functional.
Assay [6] in a line: P. falciparum Dd2 growth inhibitors, dose response, SYBR Green, cherry-picked samples (AID 1159567). Type of assay: functional, cell-based.
Assay [7] can be described thus: Dd2 malaria parasite growth inhibition potency – SYBR Green, dry powder samples, dose response (AID 1159566).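 Note: potency for growth inhibition with lower SYBR green DNA signal.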 Type of assay: functional, cell-based.
The target of a further assay is Cytochrome P450 2C19 (Homo sapiens, UniProt P33261). Put plainly: qHTS Assay for Inhibitors and Substrates of Cytochrome P450 2C19. [Related pubchem assays: 410 ]. Format: ADME. The following applies: read-out: Potency.
Sequence of Cytochrome P450 2C19 (P33261 whole entry): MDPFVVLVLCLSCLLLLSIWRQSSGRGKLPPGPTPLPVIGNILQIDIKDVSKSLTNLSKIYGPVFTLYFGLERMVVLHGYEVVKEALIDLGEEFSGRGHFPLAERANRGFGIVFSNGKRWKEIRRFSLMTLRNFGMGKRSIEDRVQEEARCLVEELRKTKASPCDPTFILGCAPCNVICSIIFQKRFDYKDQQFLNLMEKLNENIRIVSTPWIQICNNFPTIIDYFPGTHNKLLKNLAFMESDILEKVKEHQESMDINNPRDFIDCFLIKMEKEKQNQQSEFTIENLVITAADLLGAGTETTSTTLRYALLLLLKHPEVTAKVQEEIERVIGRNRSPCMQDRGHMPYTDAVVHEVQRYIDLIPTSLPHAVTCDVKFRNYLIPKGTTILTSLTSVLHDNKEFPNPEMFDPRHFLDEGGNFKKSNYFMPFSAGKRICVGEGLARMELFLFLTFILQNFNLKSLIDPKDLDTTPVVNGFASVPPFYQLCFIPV
A short description of assay [8]: viability of PTEN-deleted HCT116 cells – cell-based, HCT116 PTEN knockout, dose response (AID 1047).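 Note: HCT116 colon tumor cells with PTEN knocked out; cells exposed to compound for 60 hours before readout; potency for loss of cell viability measured by luminescence.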 Type of assay: functional.
The nature of assay [9]: viability of HCT116 lacking mutant beta-catenin – cell-based, human colon tumor, dose response (AID 1045).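 Note: HCT116 colon tumor cells with beta catenin knocked out; cells exposed to compound for 60 hours.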 Type of assay: functional.
Assay [10] has as its target T1, Replicative DNA helicase DnaB (Mycobacterium tuberculosis, UniProt P9WMR3).
T1 sequence (P9WMR3 whole entry): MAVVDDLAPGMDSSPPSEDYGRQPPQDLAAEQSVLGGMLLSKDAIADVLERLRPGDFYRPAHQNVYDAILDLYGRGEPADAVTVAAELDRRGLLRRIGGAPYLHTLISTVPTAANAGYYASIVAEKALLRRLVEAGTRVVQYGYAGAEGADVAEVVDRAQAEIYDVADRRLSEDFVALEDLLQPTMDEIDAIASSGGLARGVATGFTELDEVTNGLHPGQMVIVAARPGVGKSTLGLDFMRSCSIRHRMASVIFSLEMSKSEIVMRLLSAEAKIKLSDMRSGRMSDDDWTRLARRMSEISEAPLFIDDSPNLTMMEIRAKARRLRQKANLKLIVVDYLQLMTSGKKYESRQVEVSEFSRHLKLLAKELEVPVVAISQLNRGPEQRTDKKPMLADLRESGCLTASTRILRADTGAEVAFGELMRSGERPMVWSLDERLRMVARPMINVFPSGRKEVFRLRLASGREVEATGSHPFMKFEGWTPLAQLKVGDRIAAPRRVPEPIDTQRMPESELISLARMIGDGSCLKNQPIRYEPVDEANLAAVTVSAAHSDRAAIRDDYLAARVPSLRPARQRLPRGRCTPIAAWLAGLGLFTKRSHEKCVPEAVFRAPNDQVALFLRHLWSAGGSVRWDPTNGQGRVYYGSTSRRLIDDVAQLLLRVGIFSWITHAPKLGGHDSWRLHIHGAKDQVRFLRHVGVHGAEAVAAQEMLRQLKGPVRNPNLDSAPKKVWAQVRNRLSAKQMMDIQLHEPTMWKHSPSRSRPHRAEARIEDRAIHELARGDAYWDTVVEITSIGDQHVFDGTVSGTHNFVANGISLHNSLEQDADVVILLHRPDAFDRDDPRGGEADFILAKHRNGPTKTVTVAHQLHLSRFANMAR
Put plainly: DnaB intein splicing inhibitors, dose response, biochemical, cell-free fluorescence (AID 449749). Format: functional.

The target of assay [11] is T2, Mannose-6-phosphate isomerase (Homo sapiens, UniProt P34949).
T2 sequence (P34949 whole entry): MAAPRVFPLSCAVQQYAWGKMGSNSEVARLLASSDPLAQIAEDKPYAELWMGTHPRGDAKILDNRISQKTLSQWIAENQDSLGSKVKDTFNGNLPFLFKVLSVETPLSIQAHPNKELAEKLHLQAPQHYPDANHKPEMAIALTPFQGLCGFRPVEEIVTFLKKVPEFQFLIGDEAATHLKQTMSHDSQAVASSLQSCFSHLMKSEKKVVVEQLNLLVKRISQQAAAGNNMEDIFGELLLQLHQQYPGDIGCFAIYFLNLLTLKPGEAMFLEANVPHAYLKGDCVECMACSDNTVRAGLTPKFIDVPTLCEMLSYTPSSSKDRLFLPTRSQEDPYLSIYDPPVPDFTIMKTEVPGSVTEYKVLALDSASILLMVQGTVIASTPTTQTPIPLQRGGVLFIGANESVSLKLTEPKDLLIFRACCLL
As to the kind of experiment: MPI inhibition at elevated mannose 6-phosphate – biochemical, fluorescence intensity, high mannose 6-phosphate, primary screen (AID 1220).

In a further assay the target is T3, Protein RecA (Mycobacterium tuberculosis, UniProt P9WHJ3).
T3 sequence (P9WHJ3 whole entry): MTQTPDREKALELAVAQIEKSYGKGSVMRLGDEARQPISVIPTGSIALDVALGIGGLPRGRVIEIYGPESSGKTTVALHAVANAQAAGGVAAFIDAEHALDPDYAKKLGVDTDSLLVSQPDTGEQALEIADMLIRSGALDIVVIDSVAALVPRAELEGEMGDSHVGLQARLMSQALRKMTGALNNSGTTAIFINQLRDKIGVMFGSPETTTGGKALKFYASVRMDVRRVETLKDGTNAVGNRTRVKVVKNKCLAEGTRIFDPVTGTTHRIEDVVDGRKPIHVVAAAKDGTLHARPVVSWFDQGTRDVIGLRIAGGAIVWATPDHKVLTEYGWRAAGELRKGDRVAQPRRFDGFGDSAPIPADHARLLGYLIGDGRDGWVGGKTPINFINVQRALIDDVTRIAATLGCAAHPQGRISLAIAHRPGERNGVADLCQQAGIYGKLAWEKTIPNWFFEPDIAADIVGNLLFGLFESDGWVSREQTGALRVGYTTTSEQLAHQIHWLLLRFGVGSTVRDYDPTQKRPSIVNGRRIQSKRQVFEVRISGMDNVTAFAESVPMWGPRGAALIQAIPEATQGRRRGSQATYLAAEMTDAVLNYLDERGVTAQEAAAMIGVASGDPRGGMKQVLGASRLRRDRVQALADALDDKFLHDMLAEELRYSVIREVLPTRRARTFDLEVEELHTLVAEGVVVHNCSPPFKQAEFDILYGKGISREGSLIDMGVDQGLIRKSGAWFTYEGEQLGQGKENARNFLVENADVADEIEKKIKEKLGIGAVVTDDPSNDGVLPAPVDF
Put plainly: Fluorescence Cell-Free Homogeneous Dose Retest to Identify Inhibitors of RecA-Intein Splicing Activity. [Related pubchem assays (depositor defined):AID2097, AID2223, AID489010, AID492950]. Type of assay: functional.

For assay [12], the target named is T4, Oxysterols receptor LXR-beta (Homo sapiens, UniProt P55055).
T4 sequence (P55055 whole entry): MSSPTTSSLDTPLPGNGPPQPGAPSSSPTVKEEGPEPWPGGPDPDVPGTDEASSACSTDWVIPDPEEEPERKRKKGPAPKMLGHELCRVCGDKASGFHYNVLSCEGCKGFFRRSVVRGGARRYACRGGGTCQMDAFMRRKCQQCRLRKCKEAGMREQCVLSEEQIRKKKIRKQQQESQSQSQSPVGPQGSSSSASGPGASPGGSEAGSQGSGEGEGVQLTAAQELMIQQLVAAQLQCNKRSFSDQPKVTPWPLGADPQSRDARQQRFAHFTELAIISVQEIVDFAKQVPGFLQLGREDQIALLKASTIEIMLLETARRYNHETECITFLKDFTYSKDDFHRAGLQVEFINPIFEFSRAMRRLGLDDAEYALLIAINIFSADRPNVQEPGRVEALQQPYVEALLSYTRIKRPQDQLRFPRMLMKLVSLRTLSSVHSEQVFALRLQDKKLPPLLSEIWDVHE
Put plainly: LXR agonists, Gal4 luciferase reporter, dose response, counter-screen for ssDAF-12 agonist project, cell-based, luminescence, HEK293, S. stercoralis campaign (AID 720737). Format: functional. The following applies: read-out: IC50 (the source's name).

Assay [13] deals with T5, Heat shock factor protein 1 (Mus musculus, UniProt P38532).
T5 sequence (P38532 whole entry): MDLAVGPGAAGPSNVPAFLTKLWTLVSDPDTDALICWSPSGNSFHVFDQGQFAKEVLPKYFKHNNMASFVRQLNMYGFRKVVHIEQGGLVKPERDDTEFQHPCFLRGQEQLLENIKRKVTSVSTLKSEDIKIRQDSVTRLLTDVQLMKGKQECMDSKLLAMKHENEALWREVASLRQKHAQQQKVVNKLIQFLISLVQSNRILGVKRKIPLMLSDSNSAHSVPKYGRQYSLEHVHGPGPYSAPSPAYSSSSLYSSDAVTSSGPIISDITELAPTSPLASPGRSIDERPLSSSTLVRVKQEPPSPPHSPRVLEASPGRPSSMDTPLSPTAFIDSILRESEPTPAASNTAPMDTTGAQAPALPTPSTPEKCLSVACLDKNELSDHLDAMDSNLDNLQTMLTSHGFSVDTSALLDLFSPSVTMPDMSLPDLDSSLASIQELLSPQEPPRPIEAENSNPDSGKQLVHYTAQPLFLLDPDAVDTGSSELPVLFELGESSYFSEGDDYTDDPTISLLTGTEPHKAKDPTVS
As to the kind of experiment: enhancement of HSF1-driven luciferase signal – cell-based, NIH3T3, luminescence, dose retest, confirmation (AID 435004).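 Note: stress induced by proteasome inhibitor MG132 added 30 min after compound; luciferase reporter driven by HSF1 response element in NIH3T3 cells; actives raise luminescence as potentiators of the MG132 stress response.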 Format: functional.

A short description of assay [14]: Luminescence-based cell-based high throughput dose response assay to identify activators of the DAF-12 from the parasite S. stercoralis (ssDAF-12). Format: functional.
The next assay addresses Estrogen receptor beta (Homo sapiens, UniProt Q92731). Put plainly: blockers of SRC-3 recruitment to ERβ – biochemical, ELISA, streptavidin-HRP readout, orthogonal assay, confirmation (AID 1060).

The structures appear in SMILES notation. Calls of active or inactive are those of the source.

Sequence of Estrogen receptor beta (Q92731 whole entry): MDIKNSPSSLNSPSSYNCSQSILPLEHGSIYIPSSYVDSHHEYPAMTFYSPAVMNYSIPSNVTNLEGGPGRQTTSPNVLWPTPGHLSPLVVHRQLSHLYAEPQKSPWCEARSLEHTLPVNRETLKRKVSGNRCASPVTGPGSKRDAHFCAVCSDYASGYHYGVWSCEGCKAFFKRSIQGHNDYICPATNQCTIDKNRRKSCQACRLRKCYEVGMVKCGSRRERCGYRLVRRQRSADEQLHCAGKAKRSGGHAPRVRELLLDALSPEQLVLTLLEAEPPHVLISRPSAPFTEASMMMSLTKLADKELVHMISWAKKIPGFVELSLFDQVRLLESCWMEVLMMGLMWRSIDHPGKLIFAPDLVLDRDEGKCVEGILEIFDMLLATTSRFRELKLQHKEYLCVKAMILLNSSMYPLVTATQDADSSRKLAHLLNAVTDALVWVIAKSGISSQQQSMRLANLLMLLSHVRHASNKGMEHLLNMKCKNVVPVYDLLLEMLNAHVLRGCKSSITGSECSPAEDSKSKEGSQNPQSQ

In the case of `CCCOC(=O)c1ccc(Oc2c(C)n[nH]c2-c2ccc(O)cc2O)cc1`, the EC50 was 10.3 µM (active) in [1] and 13.7 µM (active) in assay [2].

For `CC(C)(C)[S@+]([O-])N1Cc2cc(C(=O)NCCN3CCCCC3)nc(-c3cccc(-c4cccc(C#N)c4)c3)c2[C@@H]1CCO`, the AC50 in [3] is 0.629 µM (active); in [4] it was 1.8 µM (active); in [5] it was 91.7 µM (active); in [6], 0.606 µM (active); in [7] it was 0.643 µM (active).

For `COC(=O)C1C(c2ccccc2)C2C(=O)c3c(OC)cc(OC)cc3O[C@@]12c1ccc(OC)cc1` (stereo partly drawn), the AC50 at Cytochrome P450 2C19 was 0.001 µM (inconclusive).

Regarding `COc1ccc(C2NC(=O)NC3=C2CCc2ccccc23)cc1` (stereo not drawn), the EC50 was 8.31 µM (active) in assay [8], 9.83 µM (active) in [9] and 4.7 µM (active) at Protein RecA. In addition, the AC50 in [10] is > 120 µM (inactive). In assay [11], the IC50 is 46.8 µM (active).

As for `O=C(Nc1ccccn1)c1ccc2ccccc2n1`, the EC50 in [12] is > 67.5 µM (inactive); in assay [13], > 260 µM (inactive). Besides, the IC50 in [14] is > 67.5 µM (inactive).

With `CC(=O)OCC1OC(c2cc(C)cc(C)c2)C=CC1OC(C)=O` (stereo not drawn), the AC50 on Cytochrome P450 2C19 is 2.51 µM (inconclusive).

On to `O=C(NCC1CCCO1)c1cc(-c2ccco2)nc2ccccc12` (stereo not drawn), for which the IC50 at Estrogen receptor beta is 26.4 µM (not active).

Values taken from ChEMBL document CHEMBL1201862, “PubChem BioAssay data set” (2004).
